The source made the active and inactive calls. The rule behind the calls is not given here.
Key:
U-937 [1] = experiment: cells; conditions: Homo sapiens, U-937, 48 h
Description: Antiproliferative activity against human U937 cells after 48 hrs by MTT assay

HCT-116 [2] = experiment: Antiproliferative activity against human HCT116 cells in presence of 5-FU after 48 hrs by MTT assay; conditions: HCT-116, 48 h
HUVEC = conditions: Homo sapiens, 30 uM
PLC-PRF-5 [3] = experiment: Antiproliferative activity against human PLC/PRF/5 cells in presence of 5-FU after 48 hrs by MTT assay; type: functional, cell-based; conditions: PLC-PRF-5, 48 h
PLC-PRF-5 [4] = experiment: Induction of apoptosis in human PLC/PRF/5 cells assessed as viable cells at 20 uM in presence of 5-FU after 48 hrs by annexin-V-FITC/propidium iodide staining-based flow cytometric method (reference value: 93.7%); type: functional; conditions: PLC-PRF-5, 48 h, read-out: Activity
[5] = MRT (0 to infinity) in Wistar rat at 80 mg/kg, iv after 0.05 to 24 hrs by HPLC-MS/MS analysis; type: ADME, organism-based; conditions: Wistar, in vivo
[6] = Drug level in Wistar rat plasma treated with (5-fluoro-2,4-dioxo-3,4-dihydropyrimidin1(2H)-yl)methyl-2-((S)-2-((2S,3R)-3-amino-2-hydroxy-4-phenylbut-anamido)-4-methylpentanamido)acetate hydrochloride assessed as peptidase-mediated compound formation at 80 mg/kg, iv by HPLC-MS/MS analysis; type: ADME, organism-based; conditions: in vivo
U-266 [7] = experiment: Antiproliferative activity against human U266 cells after 48 hrs by MTT assay; conditions: U-266, 48 h
HepG2 [8] = experiment: cells; conditions: Homo sapiens, HepG2, 48 h
HepG2 [9] = experiment: Antiproliferative activity against human HepG2 cells in presence of 5-FU after 48 hrs by MTT assay; type: functional, cell-based; conditions: HepG2, 48 h
PLC-PRF-5 [10] = experiment: Induction of apoptosis in human PLC/PRF/5 cells assessed as early apoptotic cells at 20 uM after 48 hrs by annexin-V-FITC/propidium iodide staining-based flow cytometric method (reference value: 5.82%); type: functional
PLC-PRF-5 [11] = experiment: Induction of apoptosis in human PLC/PRF/5 cells assessed as late apoptotic cells at 20 uM in presence of 5-FU after 48 hrs by annexin-V-FITC/propidium iodide staining-based flow cytometric method (reference value: 0.341%); type: functional
HCT-116 [12] = experiment: cells; conditions: Homo sapiens, HCT-116, 48 h
[13] = Antiproliferative activity against human H7402 cells in presence of 5-FU after 48 hrs by MTT assay; conditions: H7402, 48 h
PLC-PRF-5 [14] = experiment: Downregulation of CD13 expression in human PLC/PRF/5 cells at 10 uM after 48 hrs by flow cytometric method; type: functional, cell-based
A549 = experiment: Antiproliferative activity against human A549 cells in presence of 5-FU after 48 hrs by MTT assay; conditions: A549, 48 h
PLC-PRF-5 [15] = experiment: Induction of apoptosis in human PLC/PRF/5 cells assessed as late apoptotic cells at 20 uM after 48 hrs by annexin-V-FITC/propidium iodide staining-based flow cytometric method (reference value: 0.341%); type: functional
[16] = Antiproliferative activity against human ES2 cells in presence of 5-FU after 48 hrs by MTT assay; conditions: ES-2, 48 h
[17] = Cmax in Wistar rat at 80 mg/kg, iv after 0.05 to 24 hrs by HPLC-MS/MS analysis; type: ADME, organism-based; parameters: dose 80 mg/kg, route intravenous; conditions: in vivo
PLC-PRF-5 [18] = experiment: Antiproliferative activity against human PLC/PRF/5 cells after 48 hrs by MTT assay; conditions: PLC-PRF-5, 48 h
U-266 [19] = experiment: Antiproliferative activity against human U266 cells in presence of 5-FU after 48 hrs by MTT assay; type: functional, cell-based; conditions: U-266, 48 h
PLC-PRF-5 [20] = experiment: Induction of apoptosis in human PLC/PRF/5 cells assessed as necrotic cells at 20 uM in presence of 5-FU after 48 hrs by annexin-V-FITC/propidium iodide staining-based flow cytometric method (reference value: 0.106%); type: functional
PLC-PRF-5 [21] = experiment: Induction of apoptosis in human PLC/PRF/5 cells assessed as viable cells at 20 uM after 48 hrs by annexin-V-FITC/propidium iodide staining-based flow cytometric method (reference value: 93.7%); type: functional; conditions: PLC-PRF-5, 48 h, read-out: Activity
[22] = AUC (0 to infinity) in Wistar rat at 80 mg/kg, iv after 0.05 to 24 hrs by HPLC-MS/MS analysis; type: ADME, organism-based; parameters: dose 80 mg/kg, time infinity, route intravenous; conditions: in vivo
PLC-PRF-5 [23] = experiment: Downregulation of CD13 expression in human PLC/PRF/5 cells at 10 uM in presence of 5-FU after 48 hrs by flow cytometric method; type: functional, cell-based
[24] = Terminal Half life in Wistar rat at 80 mg/kg, iv after 0.05 to 24 hrs by HPLC-MS/MS analysis; type: ADME, organism-based; conditions: Wistar, in vivo, read-out: beta t1/2 (converted)
Rattus norvegicus = experiment: VRT (0 to infinity) in Wistar rat at 80 mg/kg, iv after 0.05 to 24 hrs by HPLC-MS/MS analysis; type: ADME, organism-based; conditions: in vivo
[25] = Volume of distribution during elimination phase in Wistar rat at 80 mg/kg, iv after 0.05 to 24 hrs by HPLC-MS/MS analysis; type: ADME, organism-based; conditions: in vivo, read-out: Vz
PLC-PRF-5 [26] = experiment: Induction of apoptosis in human PLC/PRF/5 cells assessed as early apoptotic cells at 20 uM in presence of 5-FU after 48 hrs by annexin-V-FITC/propidium iodide staining-based flow cytometric method (reference value: 5.82%); type: functional
PLC-PRF-5 [27] = experiment: Induction of apoptosis in human PLC/PRF/5 cells assessed as necrotic cells at 20 uM after 48 hrs by annexin-V-FITC/propidium iodide staining-based flow cytometric method (reference value: 0.106%); type: functional
U-937 [28] = experiment: Antiproliferative activity against human U937 cells in presence of 5-FU after 48 hrs by MTT assay; conditions: U-937, 48 h
[29] = Apparent clearance in Wistar rat at 80 mg/kg, iv after 0.05 to 24 hrs by HPLC-MS/MS analysis; type: ADME, organism-based; conditions: in vivo, read-out: CL(app) (converted)

IC50 (U-937 [1]): 143 µM
IC50 (HCT-116 [2]): 44.1 µM
MRT inf [5]: 3.44 h
Drug metabolism [6]: Metabolite_Detected
IC50 (HepG2 [8]): > 500 µM
IC50 (HepG2 [9]): 14.5 µM
IC50 (HCT-116 [12]): 358 µM
IC50 (A549): 15.9 µM
Cmax [17]: 2300 ng/mL
AUC(0-inf) [22]: 11500 ng·h/mL
half-life [24]: 3.4 h
VRT (Rattus norvegicus): 13.087 hr2
Vd [25]: 34.2 L/kg
IC50 (U-937 [28]): 9.56 µM
clearance [29]: 116 mL/min/kg
SMILES: CC(C)C[C@H](NC(=O)[C@@H](O)[C@H](N)Cc1ccccc1)C(=O)O [UBENIMEX]
inhibition (HUVEC): Active
IC50 (PLC-PRF-5 [3]): 22.8 µM
viability at 20 µM (PLC-PRF-5 [4]): 64.3%
IC50 (U-266 [7]): > 500 µM
Activity (PLC-PRF-5 [10]): 13%
Activity (PLC-PRF-5 [11]): 2.38%
IC50 [13]: 17.6 µM
Activity (PLC-PRF-5 [14]): Active
Activity (PLC-PRF-5 [15]): 3.59%
IC50 [16]: 37.1 µM
IC50 (PLC-PRF-5 [18]): > 500 µM
IC50 (U-266 [19]): 43.5 µM
Activity (PLC-PRF-5 [20]): 0%
viability at 20 µM (PLC-PRF-5 [21]): 83.4%
Activity (PLC-PRF-5 [23]): Active
Activity (PLC-PRF-5 [26]): 33.3%
Activity (PLC-PRF-5 [27]): 0.01%
